Two molecules from patent US5087573A, “Monoclonal antibody against bone alkaline phosphatase” (University of Kansas, priority 1988, dated 1992) can be followed below.

The target of the test is T1, purified alkaline phosphatase from human osteosarcoma (bone isoenzyme) (Homo sapiens, UniProt P05186).
T1 construct: Human Osteosarcoma obtained from nude mice (nu/nu) was frozen at -70° C. until required; from tissue; host or cells: human osteosarcoma tumour tissue obtained from nude mice (nu/nu); enzyme purified by n-butanol extraction, acetone and ammonium sulfate precipitation, Bio Gel-HT, DEAE Sepharose and Sephacryl S-400
T1 sequence (P05186 18-502 limits assumed): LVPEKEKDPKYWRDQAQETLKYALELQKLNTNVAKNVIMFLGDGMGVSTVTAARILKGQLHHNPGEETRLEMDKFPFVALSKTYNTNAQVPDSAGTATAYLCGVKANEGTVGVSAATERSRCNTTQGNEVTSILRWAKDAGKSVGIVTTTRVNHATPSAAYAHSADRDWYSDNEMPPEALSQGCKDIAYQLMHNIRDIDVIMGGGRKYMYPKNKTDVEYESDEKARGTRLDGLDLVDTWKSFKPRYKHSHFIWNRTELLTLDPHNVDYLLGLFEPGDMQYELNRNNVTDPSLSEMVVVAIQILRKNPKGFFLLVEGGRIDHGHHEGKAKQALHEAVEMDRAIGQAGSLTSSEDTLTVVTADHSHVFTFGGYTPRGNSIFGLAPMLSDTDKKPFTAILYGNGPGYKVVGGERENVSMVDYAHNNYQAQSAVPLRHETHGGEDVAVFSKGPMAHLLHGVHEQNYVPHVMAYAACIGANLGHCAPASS
The test is described as follows: Inhibition of alkaline phosphatase by amino acids (release of p-nitrophenol from p-nitrophenylphosphate). The conditions noted are these: amino acid at 5 mM in the reaction mixture; 4 mM p-nitrophenylphosphate, pH 10.2. It counts as biochemical. How it is done: The enzyme was assayed by measuring the release of p-nitrophenol from p-nitro-phenylphosphate at ambient temperature using a Gilford (model 250) recording spectrophotometer. The assay mixture (0.5 ml) contained 0.3M 2-amino-2-methyl-1-propanol, pH 10.2, 4 mM p-nitrophenylphosphate, 20 ug MgCl2 and 10 ul of diluted enzyme (u=micro). The formation of p-nitrophenol was measured spectrophotometrically at 410 nm. Units represent u moles of p-nitrophenol formed per minute at 22° C.
In order to define more clearly the isoenzyme, inhibition studies using amino acids were applied to the enzyme samples. The assay was carried out in the presence of L-homoarginine or L-phenylalanine at 5 mM concentration in the reaction mixtures respectively.
Based on the sensitivity to heat inactivation and inhibitions by L-homoarginine and L-phenylalanine, the properties of alkaline phosphatase from human osteosarcoma are consistent with those of the bone isoenzyme. It is generally considered in the art that the ALP from normal bone and osteosarcoma are probably identical.

On to `N=C(N)NCCCC[C@H](N)C(=O)O` [L-homoarginine], for which the inhibition at 5000 µM came out at 64%. As for `N[C@@H](Cc1ccccc1)C(=O)O` [L-phenylalanine], the inhibition at 5000 µM was found to be 5%.

The term inhibition denotes the share of the control response that was lost under treatment.
